Measurements from patent US20080057534A1, “Microbe-sensitive indicators and use of the same” (Kimberly-Clark Worldwide, Inc., priority 2006, published 2008).

What was measured:
aged chicken juice = experiment: Dye spots on woven cotton fabric, aged chicken juice
Text: A transparent film covering half of a fresh chicken on a polystyrene tray (from supermarket) was stored at room temperature for three weeks. The pale yellow juices that collected in the polystyrene tray were collected using a pipette and used for tests.
A 47-mg quantity of 1-docosyl-4-(4-hydroxystyryl)-pyridinium bromide (from Aldrich Chemical) was mixed with 10 g dimethylformamide. A small amount of solids remained after shaking and settling. The orange supernatant fluid was dropped onto woven cotton fabric of basis weight (29.2 cm×20.3 cm=6.888 g) to make orange-yellow colored circles. One drop of 1N sodium hydroxide solution was added to one orange-yellow spot on the cotton fabric, changing the color from orange-yellow to a pinkish orange.
The color change was rapid on cotton.

[1] = tested on: bacteria and other microbes in aged urine; experiment: Merocyanine dye coated paper towel, aged female human urine
Protocol: Female human urine was collected and stored in a glass jar at room temperature for 8 days. N-methyl merocyanine dye of the structure below was synthesized as described above. A 0.5-g quantity of the dye was dissolved in 20 ml deionized water and coated onto a SCOTT® kitchen roll paper towel by dipping the towel into the solution, allowing the excess to drip off, and then allowing the coated toweling to dry at ambient conditions. The paper towel was stained a deep orange color by the dye.
As a control, the aged urine was filtered through a 0.2 micron filter to remove bacteria and other microbes.
Female human urine was collected and stored for 24 hours at 37° C. Pooled female urine may be expected to have a bacterial loading of approximately 1×10^5 CFU/ml after storage under these conditions. A 0.5-g quantity of N-methyl merocyanine dye, synthesized as described above, was dissolved in 20 ml deionized water and coated onto a SCOTT® kitchen roll paper towel by dipping the towel into the solution, allowing the excess to drip off, and then allowing the coated toweling to dry at ambient conditions. The paper towel was stained a deep orange color by the dye.

[2] = tested on: budgie feces suspension in tap water; experiment: Merocyanine dye coated paper towel, budgerigar feces suspension; conditions: coated SCOTT towel, drops of suspension
Protocol: Budgerigar feces was collected from a caged pet budgie, and shaken in approximately 10 ml of Atlanta city domestic tap water. A 0.5-g quantity of N-methyl merocyanine dye, synthesized as described above, was dissolved in 20 ml deionized water and coated onto a SCOTT® kitchen roll paper towel by dipping the towel into the solution, allowing the excess to drip off, and then allowing the coated toweling to dry at ambient conditions. The paper towel was stained a deep orange color by the dye. […] As a control, Atlanta city domestic tap water was dropped onto a different area of the towel and while the color was diluted somewhat by the water, the area remained orange.

[3] = Reichardt's dye/TMB coated towel, dilute bleach solution; type: physicochemical; conditions: mixture of Reichardt's dye and TMB on SCOTT paper towel
Text: A mixture of Reichardt's dye and 3,3′,5,5′-tetramethylbenzidine (TMB) was coated onto a SCOTT® paper towel and allowed to air-dry.

E. coli bacteria = experiment: Reichardt's dye/TMB coated towel, E. coli suspension drop-wise; conditions: coating of Reichardt's dye and TMB on SCOTT paper towel
Text: Additionally, a SCOTT® paper towel having a coating of Reichardt's dye and TMB chemistries was exposed to suspension of E. coli bacteria drop-wise. The towel area that came in contact with the bacteria decolorized to a white spot in less than 10 seconds.

microbe contamination = experiment: Microbe-insensitivity of signal graphic colorants
E. coli (ATCC #8739) = experiment: Reichardt's dye coated paper, response to bacterial contamination; conditions: paper brush-coated with 80 mg/10 mL acetonitrile; 100 μL aliquots of 10^7 to 10^4 CFU/mL
Protocol: (§1) This experiment illustrated the ability of a surface coating of Reichardt's dye to respond to bacterial contamination. A sheet of paper was brush-coated with a Reichardt's dye solution (80 mg/10 mL acetonitrile). To this paper was added 100 μL aliquots of 10^7, 10^6, 10^5, and 10^4CFU/mL E. coli (ATCC #8739) or S. aureus (ATCC #6538) solutions. Water was used as a negative control. The dye color was rapidly discharged when contaminated by both types of bacteria, but more rapidly for the S. aureus. It was later determined that while both bacteria solutions were indeed at 10^7 CFU/mL concentrations, the actual concentration of the S. aureus solution was 7×10^7 CFU/mL compared to 1×10^7 CFU/mL for the E. coli solution.

S. aureus (ATCC #6538) = experiment: as above; conditions: paper brush-coated with 80 mg/10 mL acetonitrile; 100 μL aliquots of 10^7 to 10^4 CFU/mL
Protocol: as §1

S. aureus [4] = experiment: Reichardt's dye coated self-adhesive stickers, transfer of bacteria by gloved hand; conditions: 160 mg/10 mL and 80 mg/10 mL acetonitrile coatings; 10^7 CFU/mL S. aureus
Protocol: A sheet of paper self-adhesive stickers (Avery-Dennison) was also brush-coated with two different concentrations of Reichardt's dye solution (160 mg/10 mL acetonitrile, 80 mg/10 mL acetonitrile). The stickers were applied to the lid and latch mechanism of a Huggies® Wet Wipes box. A gloved hand was used to transfer 10^7 CFU/mL S. aureus to the surface of the stickers.

[5] = De-colorization by acid (model of microbial contamination) and reversal by strong base; type: physicochemical
Protocol: A CCI Multigloss yellow base pigment (available from Color Converting, Inc. of Hazleton, Pa.) was applied to a white SMS (spunbond/meltblown/spunbond) nonwoven material (available from Kimberly-Clark Corporation of Irving, Tex.) using a standard hand roller. The treated nonwoven was oven-dried at 100° C. for approximately five minutes. A solution of Reichardt's dye was prepared by mixing about 200 mg of Reichardt's dye (obtained from Sigma-Aldrich of St. Louis, Mo.) with approximately 5 g of octanol (obtained from Sigma-Aldrich). This solution was then applied in the shape of a “t” to the dried yellow pigment on the nonwoven material using a clean hand roller. A control material was prepared by applying the Reichardt's dye/octanol mixture in the “t” pattern to a sheet of untreated white SMS nonwoven material. The samples were again oven-dried at 100° C. for approximately five minutes. In previous studies, it has been discovered that strong acids can also cause de-colorization of the dye in a manner that is representative of microbial contamination. Thus, strong acids are sometimes used to model the reaction of a microbe for initial experiments. A drop of pH 2 Aldrich buffer was applied to both the control and test substrates in three places and allowed to react for three minutes. […] An observation was made that the yellow color became even more visible as time passed (presumably due to the complete de-colorization of all dye molecules in the area of the drop as the acid dried).
This experiment illustrated the ability of a strong base to reverse decolorization of Reichardt's dye. Several drops of Reichardt's dye (160 mg in 10 ml of acetonitrile) were pipetted onto a SCOTT® towel and allowed to dry. […] The blue/purple color of Reichardt's dye returned after the 1 N NaOH was added.

[6] = tested on: aged chicken juice known to have a high bacterial count; experiment: Dye coating on ceramic surface with and without TWEEN 80, drop of aged chicken juice; conditions: 80 mg/10 mL acetonitrile with TWEEN 80 (200 μL)
Protocol: A solution of Reichardt's dye (80 mg/10 mL acetonitrile) and TWEEN® 80 (200 μL) polyoxyethylene surfactant (from Fischer Scientific, Pittsburgh, Pa.) was prepared. This solution was then used to coat a ceramic surface and allowed to air dry. A second solution of Reichardt's dye (80 mg/10 mL acetonitrile) without surfactant was placed on the surface and allowed to air dry as well. After drying, a drop of aged chicken juice known to have a high bacterial count was placed on each coating area. […] Furthermore, the addition of TWEEN® surfactant allowed for easy removal of the dye from the surface.

S. aureus [7] = experiment: Reichardt's dye coatings from different solvents on towels, S. aureus aliquots; conditions: for color change of coating: 100 μl S. aureus
Protocol: The behavior of Reichardt's dye coatings made using various different solvents was evaluated. Solutions of Reichardt's dye in acetonitrile, isopropanol, and xylenes were prepared and the solutions were used to coat SCOTT® kitchen rolls towels and allowed to air-dry.

With `CCCCCCCCCCCCCCCCCCCCCC[n+]1ccc(C=Cc2ccc(O)cc2)cc1.[Br-]` [1-docosyl-4-(4-hydroxystyryl)-pyridinium bromide] the color change (aged chicken juice; orange-yellow spots on cotton fabric) was “color change to very pale yellow” and the color change (aged chicken juice; pinkish-orange areas (dye + NaOH soln.) on cotton) was “color change from pinkish-orange to very pale yellow”.
For `COc1cc(/C=C/c2cc[n+](C)cc2)ccc1[O-]` [N-methyl merocyanine dye], the color change ([1]; urine stored 24 hours at 37° C., approx. 1×10^5 CFU/ml expected) was “immediate color change from deep orange to pale yellow”, the color change ([1]; urine stored 24 hours at 37° C., filtered through 0.2 micron filter (control)) was “did not cause a color change” and the color change ([1]; urine stored 8 days, filtered through 0.2 micron filter (control)) was “did not cause a color change”. The color change ([1]; urine stored at room temperature for 8 days) was “immediate color change from deep orange to pale yellow” and the color change [2] was “immediate color change from deep orange to pale yellow”.
With `Cc1cc(-c2cc(C)c(N)c(C)c2)cc(C)c1N` [TMB, 3,3′,5,5′-tetramethylbenzidine] the “color response to bleach” value [3] was “turning orange/yellow color” and the “bleach indicator color development on bacteria” value (E. coli bacteria) was “No orange/yellow color was observed to develop”.
In the case of `Cc1ccc(Nc2ccc(Nc3ccc(C)cc3S(=O)(=O)[O-])c3c2C(=O)c2ccccc2C3=O)c(S(=O)(=O)[O-])c1.[Na+].[Na+]` [Acid Green 25], the sensitivity to microbes (microbe contamination) is reported as “fairly microbe-insensitive”.
In the case of `[O-]c1c(-c2ccccc2)cc(-[n+]2c(-c3ccccc3)cc(-c3ccccc3)cc2-c2ccccc2)cc1-c1ccccc1` [Reichardt's dye, 4-(2,4,6-triphenylpyridinium-1-yl)-2,6-diphenylphenolate], the time of de-colorization (E. coli (ATCC #8739)) is reported as < 1 min, the time of de-colorization (S. aureus (ATCC #6538)) is reported as < 1 min and the “color discharge of coated stickers” value (S. aureus [4]) is reported as “rapidly de-colorized”. For the same molecule, the “color change on acid” value ([5]; 160 mg in 10 ml acetonitrile on SCOTT towel, acetic acid and Aldrich buffer pH 2.0) was “rapid de-colorization”, the “reversal of decolorization by base” value ([5]; drop of 1 N NaOH on acid-decolorized spots) was “rapid re-colorization” and the “de-colorization revealing underlying pigment” value ([5]; drop of pH 2 Aldrich buffer on SMS nonwoven over yellow pigment, three minutes) was “underlying yellow color was clearly visible”. The “de-colorization faster than area without TWEEN surfactant” value [6] was 20 to 30 s, the “color change of coating” value (S. aureus [7]; acetonitrile solution-based coating) was “rapid de-colorization” and the “decolorization in response to microbial contamination” value (S. aureus [7]; isopropanol as solvent, dye concentration adjusted) was “readily and easily observed”. For the same molecule, the “color change of coating” value (S. aureus [7]; isopropanol solution-based coating) was “No visible color change”, the “color change of coating” value (S. aureus [7]; xylenes solution-based coating) was “No visible color change” and the “color response to bleach” value [3] was “de-colorizing”. The “time to decolorize to a white spot” value (E. coli bacteria) was “less than 10 seconds”.
